The IC50 is the point on the concentration scale where inhibition reaches its midpoint. A word on the inhibition: it is the relative decrease from the control value, in per cent. The low end stands for a response near the control, the high end for a response far below the control.

For assay [1], the target named is T1, constitutive 20S proteasome (Bos taurus, UniProt Q2TBP0+Q32KL2+Q3MHN0).
T1 construct: isolated constitutive and immunoproteasomes purified from bovine brain and thymus, respectively; from tissue; host or cells: bovine brain
The assay is described as follows: In vitro activity assays on isolated constitutive 20S proteasome (fluorogenic peptides). As to conditions: isolated 20S from bovine brain. Format: biochemical. The method, then: (§1) PVLs effects on the 20S constitutive and immunoproteasome peptidase activities were measured through in vitro assays performed with fluorogenic peptides as substrates. Isolation and purification of the 20S proteasome from bovine brain and thymus were performed as previously reported.^[ [23] ^] The incubation mixture contained the compound at concentrations ranging from 0.0 to 10 µM, 1 µg of the isolated 20S proteasome, the appropriate substrate (5 µM final concentration), and 50 mm Tris/HCl (pH 8.0), up to a final volume of 100 µL. Purified proteasomes were always preincubated with each compound at 37°C for 30 min before the fluorogenic peptide substrates were added to the reaction mixture. Final incubation was performed at 37°C, and after 60 min the fluorescence of the hydrolyzed 7‐amino‐4‐methyl‐coumarin (AMC) and 4‐aminobenzoic acid (pAB) was detected (AMC, λexc = 365 nm, λem = 449 nm; pAB, λexc = 304 nm, λem = 664 nm) on a SpectraMax Gemini XPS microplate reader.
(§2) PVLs were first tested on isolated constitutive and immunoproteasomes purified from bovine brain and thymus, respectively. The constitutive 20S proteasome is a barrel‐shaped complex of four stacked rings, made of seven α subunits in the two outer rings and seven β subunits in the two inner rings, the latter bearing the catalytically active sites in the β1, β2, and β5 subunits. Treatment with inflammatory cytokines induces the transcription of three additional active subunits, known as β1i, β2i, and β5i, that replace constitutive homologues during proteasome assembly.^[ [28] ^] Proteasome proteolytic activities depend on the hydroxyl group of the N‐terminal threonine (Thr‐1) residue, responsible for cleaving peptides through a nucleophilic attack.^[ [29] ^]

The target in a further assay is T2, 20S immunoproteasome (Bos taurus, UniProt Q3SZC2+Q3T0T1+Q3T112).
T2 construct: isolated constitutive and immunoproteasomes purified from bovine brain and thymus, respectively; from tissue; host or cells: bovine thymus
The assay can be described thus: In vitro activity assays on isolated immunoproteasome (fluorogenic peptides). The class given is biochemical. To be noted: isolated 20S from bovine thymus. The method, then:
as §1, §2

For assay [2], the system named is ubiquitin‐protein conjugates and p27. The assay is described as follows: Western blot of proteasome substrates (ubiquitin‐protein conjugates, p27). Format: cell-based, human. The method, then:
(§3) Cell viability was evaluated with the 3‐(4,5‐dimethylthiazol‐2‐yl)‐2,5‐diphenyltetrazolium bromide assay (MTT).^[ [25] ^] Upon 6 h and 24 h treatment with increasing concentrations (0‐10 µM) of C1, C2, and C3 dissolved in DMSO, cells were washed in PBS, pH 7.5, and then MTT (final concentration 0.5 mg mL^−1) was added to the culture medium without FBS and incubated for 2 h at 37 °C. The medium was then removed and replaced with 100 µL of DMSO. The optical density was measured at 550 nm in a microtiter plate reader. At least six cultures were utilized for each time point. Neuroblastoma cells, control and transfected cells, were then treated with C1, C2, and C3 for 6 and 24 h at the concentrations 0–1–5 µM. Compounds were dissolved in DMSO and then added to cell culture media. Control cells were included in each time point. After removing the medium and washing with cold phosphate buffered saline (PBS), cells were harvested in 4 mL of PBS and centrifuged at 1600 × g for 5 min. The pellet was resuspended in lysis buffer (20 mM Tris, pH 7.4, 250 mM sucrose, 1 mM EDTA, and 5 mM β‐mercaptoethanol) and passed through a 29‐gauge needle at least ten times. Lysates were centrifuged at 12 000×g for 15 min and the supernatants were stored at ‐80°C until use. Protein concentration was determined by the method of Bradford using bovine serum albumin (BSA) as standard.^[ [26] ^]
(§4) Proteins were resolved on SDS–PAGE and electroblotted onto PVDF membranes. Membranes with transferred proteins were incubated with the primary monoclonal antibody and successively with the specific peroxidase conjugated secondary antibody. Monoclonal antibodies against Ub and p27 were obtained from Santa Cruz Biotechnology, Inc. (Heidelberg, Germany). SQSTM1/p62 (sequestosome 1, herein p62) mouse monoclonal antibody was from Sigma‐Aldrich S.r.L. (Milano, Italy) and the anti‐LC3B antibody was purchased from Cell Signaling Technology, Inc. The immunoblot detection was performed with ECL Western blotting detection reagents using a ChemiDoc MP system. Each gel was loaded with molecular weight markers in the range of 12 to 225 kDa (GE Healthcare). Glyceraldehyde‐3‐phosphate dehydrogenase (GAPDH) was utilized as a control for equal protein loading: membranes were stripped and re‐probed with anti‐GAPDH monoclonal antibody (Santa Cruz Biotechnology, Heidelberg, Germany). Stripping buffer contained 200 mM glycine, 0.1% SDS, and 1% Tween 20. Immunoblot images were quantified using ImageJ 1.52p software (NIH, USA).
For orientation: Immunoblotting shows a protein as a band on a membrane.

For a further assay, the system named is LC3II and p62. The assay is described as follows: Western blot of autophagy markers (LC3II, p62). Format: cell-based, human. As to conditions: for levels of LC3II: 6 h. The method, then:
as §3
as §4, with “Each gel was loaded with molecular weight markers in the range of 12 to 225 kDa (GE Healthcare). Glyceraldehyde‐3‐phosphate dehydrogenase (GAPDH) was utilized as a control for equal protein loading: membranes were stripped and re‐probed with anti‐GAPDH monoclonal antibody (Santa Cruz Biotechnology, Heidelberg, Germany). Stripping buffer contained 200 mM glycine, 0.1% SDS, and 1% Tween 20.” left out

A further assay deals with T3, Cathepsin B (Homo sapiens, UniProt P07858).
T3 construct: The mixture for cathepsin B, containing 1 µg of cell lysate; endogenous in cells; host or cells: SH-SY5Y (control, APPwt- and APPmut-transfected)
The assay can be described thus: Cathepsin B activity in cell lysates (Z‐Arg‐Arg‐AMC). The class given is cell-based. As to conditions: APPmut cells, 6 h treatment. The method, then: as §3
Cathepsin B proteolytic activity was measured using the fluorogenic peptide Z‐Arg‐Arg‐AMC at a final concentration of 50 µM, as previously described.^[ [24] ^] The mixture for cathepsin B, containing 1 µg of cell lysate, was pre‐incubated in 100 mM phosphate buffer pH 6.0, 1 mM EDTA, and 2 mM dithiothreitol for 5 min at 30°C. Upon the addition of the substrate, the mixture was incubated for 15 min at 30°C. The fluorescent signal released by the hydrolyzed 7‐amino‐4‐methyl‐coumarin (AMC, λexc = 365 nm, λem = 449 nm) was detected on a SpectraMax Gemini XPS microplate reader.

Another assay deals with Aβ(1‐42). The assay can be described thus: Quantification of Aβ(1‐42) by ELISA in medium and cellular extracts. Format: cell-based, human. As to conditions: 24 h, 5 µM; for Aβ(1‐42) levels: APPwt cells. The method, then: Levels of Aβ(1‐42) secreted into the medium and present in cellular extracts were determined after PVLs treatment using the Human Aβ42 solid‐phase sandwich ELISA Kit from Invitrogen, following the manufacturer's instructions. For Aβ quantification in cell medium, culture medium was collected after neuronal cells treatment, centrifuged at 300 × g for 10 min to remove non adherent cells and debris and then treated with protease inhibitors.
On the technique in general: An ELISA detects its analyte on a solid surface through an enzyme-linked reagent.

Setting [3] is: 30 min preincubation, 37°C, read-out: IC50 ChT‐L Constitutive proteasome.
[4] abbreviates: read-out: IC50 BrAAP Constitutive proteasome.
Setting [5] is: read-out: IC50 PGPH Constitutive proteasome.
Where [6] appears, read: read-out: IC50 T‐L Constitutive proteasome.
Where [7] appears, read: 30 min preincubation, 37°C, read-out: IC50 ChT‐L Immunoproteasome.
Setting [8] is: read-out: IC50 BrAAP Immunoproteasome.
Where [9] appears, read: read-out: IC50 PGPH Immunoproteasome.
[10] abbreviates: read-out: IC50 T‐L Immunoproteasome.
Where [11] appears, read: 6 h exposure, control and transfected SH‐SY5Y cells.
The mark [12] stands for this setting: 24 h treatment, mainly in APPmut cells exposed to C1.

Structures are written as SMILES. Read-outs that look alike come from different tables or passages of the source.

Take `O=C1CCC(Cc2ccc(O)c(O)c2)O1` (stereo not shown) [Compound C2, 5‐(3ʹ,4ʹ‐dihydroxyphenyl)‐γ‐valerolactone]: the IC50 turned out to be 16.2 ± 1.2 nM in assay [1] (setting [3]); 256 ± 14.4 nM in assay [1] (setting [4]); 85.8 ± 7.8 nM in assay [1] (setting [5]); 87.4 ± 7.9 nM in assay [1] (setting [6]); 238 ± 16.7 nM at 20S immunoproteasome (setting [7]); 61.3 ± 5.7 nM on 20S immunoproteasome (setting [8]). Also, the IC50 at 20S immunoproteasome (setting [9]) turned out to be 114 ± 19.7 nM; at 20S immunoproteasome (setting [10]), 334 ± 28.9 nM. In addition, the figures for the “levels of Ub‐conjugates and p27” value in assay [2] (setting [11]) and in assay [2] (setting [12]) were “no particular effect” and “evident increase”, respectively. Besides, the “levels of LC3II” value in the assay on LC3II and p62 (APPwt cells) is “increased”. On Cathepsin B, this compound came in with an inhibition at 5 µM of 20%. Further, the “Aβ(1‐42) levels” value with Aβ(1‐42) is “did not induce any change”.
Turning to `O=C1CCC(Cc2ccc(OS(=O)(=O)O)c(O)c2)O1` (stereo not shown) [Compound C3, 5‐(3ʹ‐hydroxyphenyl)‐γ‐valerolactone‐4ʹ‐sulfate], the IC50 in assay [1] (setting [3]) was 109 ± 11 nM; in assay [1] (setting [4]), 302 ± 27.8 nM; in assay [1] (setting [5]) it was 104 ± 11 nM; in assay [1] (setting [6]), 56.8 ± 2.3 nM; on 20S immunoproteasome (setting [7]), 1450 ± 153 nM; at 20S immunoproteasome (setting [8]), 88.4 ± 7 nM. The IC50 at 20S immunoproteasome (setting [9]) was determined as 72.7 ± 5.7 nM; on 20S immunoproteasome (setting [10]), 588 ± 47.6 nM. Further, the “levels of Ub‐conjugates and p27” value in assay [2] (setting [11]) is recorded as “no particular effect”; in assay [2] (setting [12]) it was “evident increase”. Also, the p62 degradation entry in the assay with LC3II and p62 (APPwt cells, long‐term (24 h) exposure) is “favored p62 degradation”. On Cathepsin B, this compound displayed an inhibition at 5 µM of 30%. Further, the “reduction of Aβ(1‐42) in cell extracts” value in the assay on Aβ(1‐42) (APPmut cells) is 35%. For the same compound, in the assay on Aβ(1‐42) (APPmut cells), the “reduction of Aβ(1‐42) in cell medium” value came out at 35%.
As for `O=C1CCC(Cc2ccc(O)cc2)O1` (stereo not shown) [Compound C1, 5‐(4ʹ‐hydroxyphenyl)‐γ‐valerolactone], the IC50 came to 120 ± 12.1 nM in assay [1] (setting [3]); 243 ± 20.1 nM in assay [1] (setting [4]); 62.8 ± 58.7 nM in assay [1] (setting [5]); 13 ± 2.1 nM in assay [1] (setting [6]); 126 ± 11.3 nM on 20S immunoproteasome (setting [7]); 218 ± 19.6 nM on 20S immunoproteasome (setting [8]). In addition, the results for the IC50 on 20S immunoproteasome (setting [9]) and at 20S immunoproteasome (setting [10]) were 41.8 ± 3.8 nM and 227 ± 13.2 nM, respectively. For the same compound, the “levels of Ub‐conjugates and p27” value was “no particular effect” in assay [2] (setting [11]) and “evident increase” in assay [2] (setting [12]). For the same compound, in the assay with LC3II and p62 (APPmut cells), the “levels of LC3II” value is “increased”. Also, at Cathepsin B, testing at 5 µM gave an inhibition of 20%. Moreover, the “Aβ(1‐42) levels” value with Aβ(1‐42) is reported as “significantly reduced”.

Source of the values: PMC9285603, “Flavan‐3‐ol Microbial Metabolites Modulate Proteolysis in Neuronal Cells Reducing Amyloid‐beta (1‐42) Levels” (Molecular Nutrition & Food Research, 2021).
